Experiments:
Test in all cases: 3' UTR reporter interaction score (median-centred robust z-score of log2 firefly/Renilla activity); higher = less repression of the 3' UTR reporter
Details in all cases: HEK293T; 48 h
BRCA2 = tested on: BRCA2
Outline: (§1)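 A firefly luc2P reporter carrying the gene's 3' UTR (100 ng), Renilla pRL-TK control (20 ng) and miRNA mimic (2.5 pmol) were co-transfected with DharmaFECT Duo into HEK293T cells plated at 10,000/well in 96-well plates. Luciferase activities were read 48 h post-transfection. The interaction score is the log firefly/Renilla ratio as a per-plate robust z-score from median and median absolute deviation, median-centred per miRNA, and more negative indicates interaction. Values are averages of at least two independent screens.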

EZH2 = tested on: EZH2
Outline: as §1

FBXW7 = tested on: FBXW7
Outline: as §1

HRAS = tested on: HRAS
Outline: as §1

MYB = tested on: MYB
Outline: as §1

MYCN = tested on: MYCN
Outline: as §1

MYC = tested on: MYC
Outline: as §1

MYT1L = tested on: MYT1L
Outline: as §1

NOTCH1 = tested on: NOTCH1
Outline: as §1

PHF6 = tested on: PHF6
Outline: as §1

PHOX2B = tested on: PHOX2B
Outline: as §1

RB1 = tested on: RB1
Outline: as §1

TP53 = tested on: TP53
Outline: as §1

ZEB2 = tested on: ZEB2
Outline: as §1

Sequence	3' UTR reporter interaction score (BRCA2)	3' UTR reporter interaction score (EZH2)	3' UTR reporter interaction score (FBXW7)	3' UTR reporter interaction score (HRAS)	3' UTR reporter interaction score (MYB)	3' UTR reporter interaction score (MYCN)	3' UTR reporter interaction score (MYC)	3' UTR reporter interaction score (MYT1L)	3' UTR reporter interaction score (NOTCH1)	3' UTR reporter interaction score (PHF6)	3' UTR reporter interaction score (PHOX2B)	3' UTR reporter interaction score (RB1)	3' UTR reporter interaction score (TP53)	3' UTR reporter interaction score (ZEB2)
GUUCUCCCAACGUAAGCCCAGC	-0.8	0.22	1.08	0.00988	-4.37	0.962	-0.299	0.882	-0.479	0.685	1.74	-0.277	0.732	-0.194
GUUGGAGGAUGAAAGUACGGAGUGAU	-1.61	0.25	1.07	-0.155	0.331	0.4	-0.154	-0.433	-0.207	0.571	1.82	0.55	-1.24	0.0694
GUUGUGUCAGUUUAUCAAAC	-0.269	0.353	-0.0228	0.822	0.442	0.0505	0.0323	-0.86	-0.822	-1.91	-0.364	-1.51	0.224	-0.154
GUUUGCACGGGUGGGCCUUGUCU	0.0623	-0.233	-0.619	-1.1	-0.536	1.09	-0.328	2.21	0.297	0.29	0.0301	-0.0813	-0.225	-1.23
UAAACGUGGAUGUACUUGCUUU	0.489	0.463	0.998	-0.799	-0.172	-0.319	-1.34	-0.58	0.553	-1.71	-0.628	0.153	0.196	0.846
UAAAGCUAGAUAACCGAAAGU	1.05	0.346	-0.801	0.407	0.558	-1.46	0.416	-1.97	1.01	-0.609	0.965	0.722	0.374	-0.694
UAAAGUAAAUAUGCACCAAAA	-0.0915	0.367	-0.197	0.372	-0.21	-0.59	0.043	-0.0291	0.429	-0.814	1.69	-0.322	0.703	-0.265
UAAAGUGCUGACAGUGCAGAU	0.319	-0.906	-0.356	0.312	-0.631	-0.735	0.528	-2.37	0.373	0.442	0.0581	-0.838	-0.0101	0.619
UAAAUCCCAUGGUGCCUUCUCCU	0.0242	0.24	-0.794	-0.598	-0.131	1.04	0.0891	-0.319	0.16	1.14	0.298	0.989	0.00864	-0.698
UAACACUGUCUGGUAAAGAUGG	-0.392	-0.173	-0.104	0.0521	0.229	0.21	0.0647	-4.79	-0.447	-1.93	-0.774	0.257	0.617	-7.02
UAACACUGUCUGGUAACGAUGU	0.575	-0.274	0.00413	0.337	0.219	-0.465	-0.268	-5.06	0.173	1.8	-0.223	0.104	-0.247	-5.66
UAACAGUCUACAGCCAUGGUCG	-0.186	1.32	-0.629	0.64	0.1	0.783	0.473	1	-0.392	-0.351	-0.125	-1.41	-1.07	-0.631
UAACAGUCUCCAGUCACGGCC	-0.504	0.108	0.973	-0.229	-1.89	0.167	-0.0995	1.02	-0.389	-0.767	-0.145	-2.21	-0.811	1.77
UAAGGUGCAUCUAGUGCAGAUA	-0.222	0.286	0.264	-0.481	0.537	-0.0167	0.199	0.136	0.283	-0.951	-0.0776	-0.171	0.495	-0.0823
UAAGGUGCAUCUAGUGCAGUUA	-0.228	0.311	-0.313	-0.399	0.34	0.0551	0.863	-0.221	0.564	-1.71	0.37	-0.473	0.488	-0.449
UAAGUGCUUCCAUGUUUCAGUGG	0.202	-0.665	0.421	0.114	-0.991	0.305	-0.0462	-1.46	0.788	0.57	-0.0319	0.571	-0.245	0.969
UAAGUGCUUCCAUGUUUGAGUGU	-0.334	-0.327	0.795	0.22	-0.941	0.678	-0.0168	-0.74	0.935	-0.0188	0.566	0.167	-0.124	1.47
UAAGUGCUUCCAUGUUUUAGUAG	-0.649	-0.765	0.557	0.314	-0.833	0.56	-0.0722	-1.12	1.36	0.487	-0.86	0.351	0.0485	1.24
UAAGUGCUUCCAUGUUUUGGUGA	-0.208	-0.457	0.567	-0.478	-1.01	0.317	-0.0521	-1.44	1.18	0.733	0.453	1.03	-0.0784	1.55
